Activity calls are given as the source filed them. The calls are words filed in the database; no cut-off is given here.
Assays:
[1] = Selectivity index, ratio of IC50 for inhibition of Escherichia coli FPG using 8-oxo-Gua substrate incubated for 10 mins by TAMRA fluorescence-based assay to IC50 for inhibition of human OGG1 incubated for 30 mins using 8-oxo-Gua-containing substrate by TAMRA fluorescence-based assay
N-glycosylase/DNA lyase [2] = biological target: T1, N-glycosylase/DNA lyase (Homo sapiens, UniProt O15527); assay: Inhibition of human OGG1 assessed as reduction in AP lyase activity using AP-containing substrate
T1 sequence (O15527 whole entry): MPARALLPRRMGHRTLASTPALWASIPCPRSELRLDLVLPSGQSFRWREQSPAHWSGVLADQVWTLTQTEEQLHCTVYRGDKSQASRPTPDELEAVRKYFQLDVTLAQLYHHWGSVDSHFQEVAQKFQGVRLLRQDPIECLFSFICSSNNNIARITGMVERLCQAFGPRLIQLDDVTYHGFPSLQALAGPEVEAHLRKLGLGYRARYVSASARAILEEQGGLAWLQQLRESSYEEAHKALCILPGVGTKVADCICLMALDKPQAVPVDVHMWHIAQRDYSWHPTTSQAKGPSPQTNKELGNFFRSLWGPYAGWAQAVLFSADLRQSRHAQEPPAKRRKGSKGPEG

N-glycosylase/DNA lyase [3] = biological target: T1, N-glycosylase/DNA lyase; assay: Inhibition of human OGG1 catalytic activity assessed as reduction trapping of substrates using 8-oxo-Gua substrate by measuring concentration of compound needed to reduce borohydride trapping by 50% in presence of sodium cyno-borohydride by gel electrophoresis method
[4] = biological target: T2, Endonuclease III-like protein 1 (Homo sapiens) (UniProt P78549); assay: Inhibition of NTH1 (unknown origin) assessed as effect on DNA lesions per 10^6 DNA bases using thymine glycol substrate incubated for 1 hr by GC-MS/MS assay
T2 sequence (whole entry): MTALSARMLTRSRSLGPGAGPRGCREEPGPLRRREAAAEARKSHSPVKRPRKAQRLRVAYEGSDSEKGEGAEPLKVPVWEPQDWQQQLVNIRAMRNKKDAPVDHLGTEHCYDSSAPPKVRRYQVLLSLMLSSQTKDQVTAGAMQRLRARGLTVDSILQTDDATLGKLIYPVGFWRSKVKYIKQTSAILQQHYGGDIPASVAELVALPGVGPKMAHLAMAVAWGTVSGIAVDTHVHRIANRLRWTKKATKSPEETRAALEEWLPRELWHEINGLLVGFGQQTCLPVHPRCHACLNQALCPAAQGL

[5] = biological target: T2, Endonuclease III-like protein 1 (Homo sapiens); assay: Inhibition of NTH1 (unknown origin) assessed as effect on DNA lesions per 10^6 DNA bases using FapyAde substrate incubated for 1 hr by GC-MS/MS assay
[6] = biological target: T3, Formamidopyrimidine-DNA glycosylase (Escherichia coli (strain K12)) (UniProt P05523); assay: Inhibition of Escherichia coli FPG assessed as remaining enzyme activity at 50 uM using 8-oxo-Gua substrate incubated for 10 mins by TAMRA fluorescence-based assay
T3 sequence (whole entry): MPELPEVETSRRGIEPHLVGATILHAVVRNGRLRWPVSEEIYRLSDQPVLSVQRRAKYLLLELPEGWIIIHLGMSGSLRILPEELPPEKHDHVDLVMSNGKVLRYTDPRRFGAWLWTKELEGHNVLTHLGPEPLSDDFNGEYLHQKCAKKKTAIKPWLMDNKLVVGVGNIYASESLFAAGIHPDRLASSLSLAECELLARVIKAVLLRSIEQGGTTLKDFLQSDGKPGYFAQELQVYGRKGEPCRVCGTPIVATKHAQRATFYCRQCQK

N-glycosylase/DNA lyase [7] = biological target: T1, N-glycosylase/DNA lyase; assay: Inhibition of human OGG1 catalytic activity assessed as reduction trapping of substrates at 10 uM using 8-oxo-Gua substrate in presence of sodium cyno-borohydride by gel electrophoresis method
Endonuclease 8-like 1 [8] = biological target: T4, Endonuclease 8-like 1 (Homo sapiens, UniProt Q96FI4); assay: Inhibition of NEIL1 (unknown origin) assessed as effect on DNA lesions per 10^6 DNA bases using FapyAde substrate incubated for 1 hr by GC-MS/MS assay
T4 sequence (Q96FI4 whole entry): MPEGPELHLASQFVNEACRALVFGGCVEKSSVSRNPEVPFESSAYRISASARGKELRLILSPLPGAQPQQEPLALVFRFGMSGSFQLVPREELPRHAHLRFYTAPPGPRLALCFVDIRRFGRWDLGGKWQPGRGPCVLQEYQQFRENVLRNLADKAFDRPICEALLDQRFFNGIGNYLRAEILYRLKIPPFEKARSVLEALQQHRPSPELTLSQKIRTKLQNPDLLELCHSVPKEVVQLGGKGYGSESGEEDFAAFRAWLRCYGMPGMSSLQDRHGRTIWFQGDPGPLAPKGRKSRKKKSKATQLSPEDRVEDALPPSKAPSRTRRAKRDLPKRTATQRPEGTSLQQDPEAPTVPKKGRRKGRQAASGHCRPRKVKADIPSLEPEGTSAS

Endonuclease 8-like 1 [9] = biological target: T4, Endonuclease 8-like 1; assay: Inhibition of NEIL1 (unknown origin) using Sp/Gh substrate incubated for 40 mins by TAMRA fluorescence-based assay
[10] = Binding affinity to duplex DNA (unknown origin) assessed as induction of DNA intercalation at 50 uM incubated for 30 mins by gel electrophoresis
N-glycosylase/DNA lyase [11] = biological target: T1, N-glycosylase/DNA lyase; assay: Inhibition of human OGG1 assessed as reduction in free Inhibition of human OGG1 assessed as reduction in free FapyGua release using gamma-irradiated calf thymus DNA substrate incubated for 1 hr by GC-MS/MS assay
Endonuclease 8-like 1 [12] = biological target: T4, Endonuclease 8-like 1; assay: Inhibition of NEIL1 (unknown origin) assessed as remaining enzyme activity at 50 uM using Sp/Gh substrate incubated for 40 mins by TAMRA fluorescence-based assay
N-glycosylase/DNA lyase [13] = biological target: T1, N-glycosylase/DNA lyase; assay: Inhibition of human OGG1 catalytic activity assessed as reduction trapping of substrates using AP site containing substrate by measuring concentration of compound needed to reduce borohydride trapping by 50% in presence of sodium cyno-borohydride by gel electrophoresis method
[14] = biological target: T2, Endonuclease III-like protein 1 (Homo sapiens); assay: Inhibition of NTH1 (unknown origin) assessed as effect on DNA lesions per 10^6 DNA bases using FapyGua substrate incubated for 1 hr by GC-MS/MS assay
Endonuclease 8-like 1 [15] = biological target: T4, Endonuclease 8-like 1; assay: Inhibition of NEIL1 (unknown origin) assessed as effect on DNA lesions per 10^6 DNA bases using 5-OH-5-MeHyd substrate incubated for 1 hr by GC-MS/MS assay
N-glycosylase/DNA lyase [16] = biological target: T1, N-glycosylase/DNA lyase; assay: Inhibition of human OGG1 binding to 8-oxo-Gua substrate using compound pre-incubated with enzyme for 5 to 10 mins before substrate addition and further incubated for 5 mins by native gel electrophoresis based by gel-shift assay
Endonuclease 8-like 1 [17] = biological target: T4, Endonuclease 8-like 1; assay: Inhibition of NEIL1 (unknown origin) assessed as effect on DNA lesions per 10^6 DNA bases using FapyGua substrate incubated for 1 hr by GC-MS/MS assay
[18] = biological target: T5, Formamidopyrimidine-DNA glycosylase (Escherichia coli (strain K12), UniProt P05523); assay: Inhibition of Escherichia coli FPG using 8-oxo-Gua substrate incubated for 10 mins by TAMRA fluorescence-based assay
T5 sequence (P05523 whole entry): T3 sequence (whole entry)

Homo sapiens [19] = species: Homo sapiens; assay: Selectivity index, ratio of IC50 for inhibition of NTH1 (unknown origin) incubated for 40 mins by TAMRA fluorescence-based assay to IC50 for inhibition of human OGG1 incubated for 30 mins using 8-oxo-Gua-containing substrate by TAMRA fluorescence-based assay
N-glycosylase/DNA lyase [20] = biological target: T1, N-glycosylase/DNA lyase; assay: Inhibition of human OGG1 catalytic activity assessed as reduction trapping of substrates at 10 uM using AP site containing substrate in presence of sodium cyno-borohydride by gel electrophoresis method
N-glycosylase/DNA lyase [21] = biological target: T1, N-glycosylase/DNA lyase; assay: Inhibition of human OGG1 assessed as protection against NaOH-mediated strand cleavage using AP-containing substrate; parameters: scale not given: the % may be the effect or the level left
N-glycosylase/DNA lyase [22] = biological target: T1, N-glycosylase/DNA lyase; assay: Inhibition of human OGG1 assessed as reduction in free 8-oxo-Gua release using gamma-irradiated calf thymus DNA substrate incubated for 1 hr by GC-MS/MS assay
[23] = biological target: T3, Formamidopyrimidine-DNA glycosylase (Escherichia coli (strain K12)); assay: Inhibition of Escherichia coli FPG assessed as reduction in enzyme-mediated incision using compound pre-incubated with 8-oxo-Gua substrate for 30 mins at 37 degC followed by enzyme addition
[24] = biological target: T3, Formamidopyrimidine-DNA glycosylase (Escherichia coli (strain K12)); assay: Inhibition of Escherichia coli FPG assessed as reduction in enzyme-mediated incision using compound pre-incubated with AP-site containing DNA substrate for 30 mins at 37 degC followed by enzyme addition
[25] = biological target: T2, Endonuclease III-like protein 1 (Homo sapiens); assay: Inhibition of NTH1 (unknown origin) assessed as remaining enzyme activity at 50 uM incubated for 40 mins by TAMRA fluorescence-based assay
Homo sapiens [26] = species: Homo sapiens; assay: Selectivity index, ratio of IC50 for inhibition of NEIL1 (unknown origin) using Sp/Gh substrate incubated for 40 mins by TAMRA fluorescence-based assay to IC50 for inhibition of human OGG1 incubated for 30 mins using 8-oxo-Gua-containing substrate by TAMRA fluorescence-based assay
[27] = biological target: T6, Endonuclease III-like protein 1 (Homo sapiens, UniProt P78549); assay: Inhibition of NTH1 (unknown origin) incubated for 40 mins by TAMRA fluorescence-based assay
T6 sequence (P78549 whole entry): T2 sequence (whole entry)

[28] = biological target: T2, Endonuclease III-like protein 1 (Homo sapiens); assay: Inhibition of NTH1 (unknown origin) assessed as effect on DNA lesions per 10^6 DNA bases using 5-OH-5-MeHyd substrate incubated for 1 hr by GC-MS/MS assay
[29] = biological target: T2, Endonuclease III-like protein 1 (Homo sapiens); assay: Inhibition of NTH1 (unknown origin) assessed as effect on DNA lesions per 10^6 DNA bases using 5-hydroxycytosine substrate incubated for 1 hr by GC-MS/MS assay
N-glycosylase/DNA lyase [30] = biological target: T1, N-glycosylase/DNA lyase; details: 0.08 to 8 uM
Description: Inhibition of human OGG1 at 0.08 to 8 uM incubated for 30 mins using 8-oxo-Gua-containing substrate by PAGE-based cleavage assay

NNC(=O)c1sc2cccc(Cl)c2c1Cl
Ratio IC50 [1]: > 200
inhibition (N-glycosylase/DNA lyase [2]): Active
IC50 (N-glycosylase/DNA lyase [3]): 1.03 µM
inhibition [4]: inactive
inhibition [5]: inactive
Activity [6]: 91.7%
inhibition (N-glycosylase/DNA lyase [7]): Active
inhibition (Endonuclease 8-like 1 [8]): inactive
IC50 (Endonuclease 8-like 1 [9]): > 50 µM
Activity [10]: inactive
inhibition (N-glycosylase/DNA lyase [11]): Active
Activity (Endonuclease 8-like 1 [12]): 84.6%
IC50 (N-glycosylase/DNA lyase [13]): 0.74 µM
inhibition [14]: inactive
inhibition (Endonuclease 8-like 1 [15]): inactive
inhibition (N-glycosylase/DNA lyase [16]): inactive
inhibition (Endonuclease 8-like 1 [17]): inactive
IC50 [18]: > 50 µM
Ratio IC50 (Homo sapiens [19]): > 200
inhibition (N-glycosylase/DNA lyase [20]): Active
Activity (N-glycosylase/DNA lyase [21]): 2%
inhibition (N-glycosylase/DNA lyase [22]): Active
inhibition [23]: inactive
inhibition [24]: inactive
Activity [25]: 63.1%
Ratio IC50 (Homo sapiens [26]): > 200
IC50 [27]: > 50 µM
inhibition [28]: inactive
inhibition [29]: inactive

O=C(N/N=C/c1ccc(F)cc1)c1sc2ccccc2c1Cl
inhibition [4]: inactive
inhibition [5]: inactive
Activity [6]: 81.7%
inhibition (Endonuclease 8-like 1 [8]): inactive
IC50 (Endonuclease 8-like 1 [9]): > 50 µM
Activity [10]: inactive
Activity (Endonuclease 8-like 1 [12]): 86.7%
inhibition [14]: inactive
inhibition (Endonuclease 8-like 1 [15]): inactive
inhibition (Endonuclease 8-like 1 [17]): inactive
IC50 [18]: > 50 µM
inhibition [23]: inactive
inhibition [24]: inactive
Activity [25]: 89.2%
IC50 [27]: > 50 µM
inhibition [28]: inactive
inhibition [29]: inactive

O=C(O)C1=CC(=C(c2ccc(O)c(C(=O)O)c2)c2ccc(O)c(C(=O)O)c2)C=CC1=O
inhibition (N-glycosylase/DNA lyase [16]): Active

CC[n+]1c(-c2ccccc2)c2cc(N)ccc2c2ccc(N)cc21
Activity [10]: Active

C/C(=N\NC(=O)c1cc2ccccc2cc1O)c1ccc2c(c1)OCO2
Activity [10]: inactive
Activity (Endonuclease 8-like 1 [12]): 52%
Activity [25]: 73%

NNC(=O)COc1cccc2ccccc12
Activity [6]: 88.5%
Activity [10]: inactive
Activity (Endonuclease 8-like 1 [12]): 78.7%
Activity [25]: 53.6%

Cc1cc(C(=O)NNCc2ccccc2)no1
inhibition (N-glycosylase/DNA lyase [2]): inactive
inhibition (N-glycosylase/DNA lyase [11]): inactive
Activity (Endonuclease 8-like 1 [12]): 93.3%
inhibition (N-glycosylase/DNA lyase [22]): inactive
Activity [25]: 105%

NNC(=O)c1ccncc1
inhibition (N-glycosylase/DNA lyase [30]): inactive
Ratio IC50 [1]: > 200
inhibition (N-glycosylase/DNA lyase [2]): inactive
inhibition (N-glycosylase/DNA lyase [7]): Active
inhibition (N-glycosylase/DNA lyase [11]): inactive
Activity (Endonuclease 8-like 1 [12]): 80.6%
Ratio IC50 (Homo sapiens [19]): > 200
inhibition (N-glycosylase/DNA lyase [20]): Active
Activity (N-glycosylase/DNA lyase [21]): 1%
inhibition (N-glycosylase/DNA lyase [22]): inactive
Activity [25]: 98%
Ratio IC50 (Homo sapiens [26]): > 200

CC(Oc1cccc(Cl)c1)C(=O)NN (centres undefined)
Activity [6]: 90.8%
Activity [10]: inactive
Activity (Endonuclease 8-like 1 [12]): 95.3%
Activity [25]: 100%

COc1cc(C)c(S(=O)(=O)n2cc(C)nc2-c2ccccc2)cc1C
Activity [10]: inactive
Activity (Endonuclease 8-like 1 [12]): 100%
Activity [25]: 109%

Reference: ChEMBL document CHEMBL4421727, “Small molecule inhibitors of 8-oxoguanine dna glycosylase-1 (ogg1)” (2017)
